Reference: the supplement of paper PMC11997997

Legend:
[1] = test system: murine bone marrow-derived macrophages; test: area under cytotoxicity dose-response curve (AUC (% cytotoxicity x dose, relative)); higher = more cytotoxic; conditions: duration: 6 days; dose range: 0.13-80 uM, 8 points
Outline: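 An 8-point, 2.5-fold dilution series (final 80–0.13 μM) was applied for 6 days at 37 °C in 5% CO2 to primary murine bone marrow-derived macrophages plated in opaque 384-well plates. Promega's CellTiter-Glo luminescence assay measured viability, and percent cytotoxicity was normalised against vehicle and positive control wells. The area under the dose–response curve, worked out in GraphPad Prism version 10, is the reported cytotoxicity measure.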

[2] = test system: Mycobacterium tuberculosis CDC1551 (intracellular, in murine BMDM); test: area under intracellular growth-inhibition dose-response curve (AUC (% inhibition x dose, relative)); higher = more potent; conditions: duration: 6 days; dose range: 0.13-80 uM, 8 points
Outline: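 Each value is an area under the growth-inhibition dose–response curve, calculated with GraphPad Prism. Infected primary murine bone marrow-derived macrophages, carrying luciferase-expressing M. tuberculosis CDC1551 at multiplicity of infection 1, were treated for 6 days with an 8-dose, 2.5-fold series (final 80–0.13 μM) in 384-well opaque plates. Readout was by Bright-Glo luciferin assay, normalised to a reference drug control and the lowest-concentration wells.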

| Compound | area under cytotoxicity dose-response curve [1] | area under intracellular growth-inhibition dose-response curve [2] |
| --- | --- | --- |
| FC(F)(Cl)c1nnc2ccc(Cl)nn12 | 26.5 | 126 |
| Cc1cc(C(C)(C)C)cc(C)c1C[n+]1c2n(c3ccc(C(F)(F)F)cc31)CCCCC2.[Cl-] | 120 | 138 |
| CC(NC(=O)c1ccc(F)cc1)C1CC2CCC1C2 (stereo not drawn) | 238 | 168 |
| O=C(COC(=O)c1cc(Cl)nc(Cl)c1)NCCc1ccc(F)cc1 | 4.71 | 108 |
| C/C(=N/NC(N)=S)c1ccc(Br)s1 | < 0 | 268 |
| NC(=S)N/N=C/c1ccc(-c2cc(Cl)cc(Cl)c2)o1 | 41.6 | 230 |
| COc1ccc(C2=NOC(CNC(N)=S)C2)cc1 (stereo not drawn) | 7.88 | 92.8 |
| C[n+]1c(-c2ccccc2)c2cc(N)ccc2c2ccc(N)cc21.[Br-] | 30.1 | 59.8 |
| CC(C)CCNC(=O)c1csc2c1CCCCC2 | 42.8 | 250 |
| O=C(Cc1ccc(Br)cc1)N1CCCC1 | < 0 | 208 |
| Cc1ccc(/C(O)=C/c2nc3ccccc3oc2=O)cc1 | < 0 | 22.9 |
| CNc1ccc2oc(C[C@H]3O[C@@]4(CC[C@H]3C)O[C@H]([C@H](C)C(=O)c3ccc[nH]3)[C@H](C)C[C@H]4C)nc2c1C(=O)O | 9.01 | 148 |
| CC1CN(c2ccc(NC(=S)Nc3ccc(N4CC(C)OC(C)C4)cc3)cc2)CC(C)O1 (stereo not drawn) | 17.3 | 186 |
| O=C(N/N=C/c1coc2ccccc2c1=O)c1ccncc1 | < 0 | 272 |
| Cc1ccc(Cc2c(C)c(C#N)c3nc4ccccc4n3c2O)cc1 | 75.7 | 240 |
| c1ccc(Cc2nnc(-c3ccccc3)o2)cc1 | 39.3 | 264 |
| O=C(/C=C/c1ccc(S(=O)(=O)N2CCOCC2)cc1)NCCc1ccc(C(F)(F)F)cc1 | 42 | 102 |
| COC(=O)C(C)NC(=S)N1CCN(c2c(F)cc3c(=O)c(C(=O)O)cn(C4CC4)c3c2OC)CC1C (stereo not drawn) | 23.4 | 90 |
| O=C(CCc1ccccc1)NC1C2CC3CC(C2)CC1C3 (stereo not drawn) | 3.6 | 194 |
| COC(=O)c1cccc(/C=N/NC(N)=S)c1O | 32.1 | 144 |
| O=Cc1ccc2oc3nc4n(c(=O)c3c(=O)c2c1)CCCS4 | 95.3 | 111 |
| O=C(NNC(=S)Nc1ccc(C(=O)O)c(O)c1)c1ccncc1 | 30.7 | 170 |
| O=C(CSc1ccc(Cl)cc1)NNC(=O)c1ccncc1 | 107 | 241 |
| Cc1cc(C)cc(NC(=O)NC2CCCCCCC2)c1 | 109 | 198 |
| CC(=O)Nc1ccccc1NC(=O)C/C(C)=N/NC(=O)c1ccncc1 | 38.1 | 168 |
| CC1CCN(C(=O)C2COc3ccccc3O2)CC1 (stereo not drawn) | < 0 | 265 |
| CN(C)c1nc(-c2ccccn2)nnc1-c1ccccc1 | 120 | 149 |

| Compound | area under cytotoxicity dose-response curve [1] | area under intracellular growth-inhibition dose-response curve [2] |
| --- | --- | --- |
| Cc1cc(C(=O)NC2CCCCCCC2)ccc1[N+](=O)[O-] | < 0 | 220 |
| O=[N+]([O-])c1ccc(N2CCCCC2)s1 | 14.5 | 165 |
| Cc1c(Cc2ccccc2)c(NCCCO)n2c(nc3ccccc32)c1C#N | < 0 | 148 |
| CN(Cc1ccccc1)C(=O)CCc1ccccc1 | < 0 | 181 |
| C/C(CC(=O)Nc1ccc(C)c(Cl)c1)=N\NC(=O)c1ccncc1 | < 0 | 272 |
| CN(C)S(=O)(=O)c1ccc(C(=O)OCC(=O)Nc2ccc3c(c2)OCO3)cc1 | 38.4 | 11.2 |
| CN(C)C1C(=O)C(C(N)=O)=C(O)C2(O)C(O)=C3C(=O)c4c(O)cccc4C(C)(O)C3C(O)C12 (stereo not drawn) | 22.3 | 166 |
| CC(C)/N=c1\cc2n(-c3ccc(Cl)cc3)c3ccccc3nc-2cc1Nc1ccc(Cl)cc1 | 73.5 | 208 |
| O=C(NCc1ccccc1F)c1ccc2c(c1)OCO2 | 87.2 | 79.5 |
| COc1cc(/C=N/NC(=O)c2ccncc2)ccc1OC(C)=O | 37.6 | 273 |
| COc1ccc(/C=N/NC(N)=S)cc1OC(=O)c1ccccc1 | 106 | 241 |
| COc1ccc(NC(=S)Nc2ccc(N)c([N+](=O)[O-])c2)cc1 | 5.13 | 167 |
| O=C(/C=C/c1cccs1)N1CCCCC1 | < 0 | 243 |
| CC(=O)N1CCN(c2cc3c(cc2F)c(=O)c(C(=O)O)cn3C2CC2)CC1 | 6.41 | 228 |
| Cc1nc2ccccn2c1C(=O)NCc1ccc2c(c1)OCO2 | 38.9 | 203 |
| COc1cc(/C=C/C(=O)c2ccc([N+](=O)[O-])o2)ccc1O | 107 | 76 |
| COc1ccc(CCNC(=O)c2ccc(Cl)cc2)cc1 | < 0 | 241 |
| Sc1[nH]cnc2ncnc1-2 | < 0 | 88.6 |
| COc1ccc(CCNC(=O)c2cc([N+](=O)[O-])cc([N+](=O)[O-])c2)cc1OC | < 0 | 243 |
| C#CCSc1nnc(-c2ccc([N+](=O)[O-])cc2)o1 | < 0 | 246 |
| COc1ccc(CCNC(=O)c2cc(-c3ccccn3)nc3ccccc23)cc1 | 17.5 | 40.6 |
| COc1ccc(/C=C/C(=O)c2ccc([N+](=O)[O-])o2)cc1OC | 118 | 3.95 |
| CC1CCc2nc3sc4c(c3c(N)c2C1)CCCC4 (stereo not drawn) | 58.3 | 174 |
| O=C(NC1CCCC1)c1ccc(Br)s1 | 54.8 | 220 |
| O=C(NC1CCCC1)C1CC1c1ccccc1 (stereo not drawn) | < 0 | 135 |
| Cc1ccc(-n2c(C)cc(/C=N/NC(N)=S)c2C)cc1 | 26 | 233 |
| O=C(NN=C1CCCCCC1)c1ccncc1 | 11.3 | 273 |
